target: T1, ITK (Homo sapiens, UniProt Q08881); experiment: ITK enzyme assay (Caliper or LCMS peptide phosphorylation); format: biochemical; conditions: purified ITK (Invitrogen PV3875), 20 μM ATP, Ki by Morrison's quadratic equation
T1 construct: purchased Invitrogen PV3875
T1 sequence (Q08881 1-620): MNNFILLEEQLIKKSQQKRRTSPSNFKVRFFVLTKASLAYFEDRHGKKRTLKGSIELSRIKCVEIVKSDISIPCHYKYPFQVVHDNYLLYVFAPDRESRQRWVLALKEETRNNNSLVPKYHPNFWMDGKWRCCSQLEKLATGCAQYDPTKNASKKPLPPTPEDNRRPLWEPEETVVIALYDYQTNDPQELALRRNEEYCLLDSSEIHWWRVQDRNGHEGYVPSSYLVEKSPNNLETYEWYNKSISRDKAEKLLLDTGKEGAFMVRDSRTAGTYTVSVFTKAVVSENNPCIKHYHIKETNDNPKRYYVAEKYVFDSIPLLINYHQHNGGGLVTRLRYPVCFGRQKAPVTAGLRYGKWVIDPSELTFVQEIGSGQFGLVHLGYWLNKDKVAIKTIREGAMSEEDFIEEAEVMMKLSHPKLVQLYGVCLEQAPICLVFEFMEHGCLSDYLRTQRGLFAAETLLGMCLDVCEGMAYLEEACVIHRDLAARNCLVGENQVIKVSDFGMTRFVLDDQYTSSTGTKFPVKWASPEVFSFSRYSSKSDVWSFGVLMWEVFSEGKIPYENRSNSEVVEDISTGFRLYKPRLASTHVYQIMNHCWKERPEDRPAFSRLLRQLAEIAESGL
Summary of the method: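 Purified human ITK peptide phosphorylation, quenched with EDTA (50 mM final) for Caliper LabChip separation or TCA (5% v/v final) for UPLC-MS/MS MRM quantification. Ki derived via Morrison tight-binding equation, corrected for competitive inhibition using ATP concentration relative to Km,app.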

Row | SMILES | Ki [nM]
1 | CN(CCC(c1ccccc1)n1cc(NC(=O)c2n[nH]c3c2CCC(C)(C)C3)cn1)S(C)(=O)=O (stereo not shown) [Example 122, 6,6-dimethyl-N-(1-(3-(N-methylmethylsulfonamido)-1-phenylpropyl)-1H-pyrazol-4-yl)-4,5,6,7-tetrahydro-1H-indazole-3-carboxamide] | 4
2 | CC1(C)CCc2c(C(=O)Nc3cnn(C(c4nccs4)C4CCSCC4)c3)n[nH]c2C1 (single isomer, unassigned) [Example 85b, 6,6-dimethyl-N-(1-((tetrahydro-2H-thiopyran-4-yl)(thiazol-2-yl)methyl)-1H-pyrazol-4-yl)-4,5,6,7-tetrahydro-1H-indazole-3-carboxamide] | 0.9
3 | CC12Cc3[nH]nc(C(=O)Nc4cnn(Cc5ccccc5)c4)c3C1C2 (single isomer, unassigned) [Example 150b, N-(1-benzyl-1H-pyrazol-4-yl)-4a-methyl-3b,4,4a,5-tetrahydro-1H-cyclopropa[3,4]cyclopent a[1,2-c]pyrazole-3-carboxamide] | 32
4 | CC1(C)CCc2c(C(=O)Nc3cnn(C(c4ccccc4)C4CCN(S(C)(=O)=O)CC4)c3)n[nH]c2C1 (single isomer, unassigned) [Example 67a, 6,6-dimethyl-N-(1-((1-(methylsulfonyl)piperidin-4-yl)(phenyl)methyl)-1H-pyrazol-4-yl)-4,5,6,7-tetrahydro-1H-indazole-3-carboxamide] | 0.2
5 | CC12Cc3[nH]nc(C(=O)Nc4cnn(Cc5ccccc5)c4)c3C1C2 (single isomer, unassigned) [Example 150a, N-(1-benzyl-1H-pyrazol-4-yl)-4a-methyl-3b,4,4a,5-tetrahydro-1H-cyclopropa[3,4]cyclopent a[1,2-c]pyrazole-3-carboxamide] | 130
6 | CN(C)CCC(c1ccccc1)n1cc(NC(=O)c2n[nH]c3c2CC2CC2C3)cn1 (single isomer, unassigned) [Example 28d, N-(1-(3-(dimethylamino)-1-phenylpropyl)-1H-pyrazol-4-yl)-1,4,4a,5,5a,6-hexahydrocyclopropa[f]indazole-3-carboxamide] | 98
7 | CC[C@@H](c1ccccc1)n1cc(NC(=O)c2n[nH]c3c2CC2CC2C3)cn1 (single isomer, unassigned) [Example 24a] | 9.4
8 | CC1(C)CCc2c(C(=O)Nc3cnn(C(c4cccc(S(C)(=O)=O)c4)C4CCOC4)c3)n[nH]c2C1 (single isomer, unassigned) [Example 126b, 6,6-dimethyl-N-(1-((3-(methylsulfonyl)phenyl)(tetrahydrofuran-3-yl)methyl)-1H-pyrazol-4-yl)-4,5,6,7-tetrahydro-1H-indazole-3-carboxamide] | 0.1
9 | CC1(C)CCc2c(C(=O)Nc3cnn(C(c4ccccc4)C4CCOCC4)c3)n[nH]c2C1 (single isomer, unassigned) [Example 113b, 6,6-dimethyl-N-(1-(phenyl(tetrahydro-2H-pyran-4-yl)methyl)-1H-pyrazol-4-yl)-4,5,6,7-tetra hydro-1H-indazole-3-carboxamide] | 0.3
10 | CN(C)CCC(c1ccccc1)n1cc(NC(=O)c2n[nH]c3c2CCC2(CC2)C3)cn1 (single isomer, unassigned) [Example 16b, N-(1-(3-(dimethylamino)-1-phenylpropyl)-1H-pyrazol-4-yl)-1′,4′,5′,7′-tetrahydrospiro[cyclopropane-1,6′-indazole]-3′-carboxamide] | 7.9
11 | CN(C)CCC(c1ccccc1)n1cc(NC(=O)c2n[nH]c3c2CCC2(CC2)C3)cn1 (single isomer, unassigned) [Example 16a, N-(1-(3-(dimethylamino)-1-phenylpropyl)-1H-pyrazol-4-yl)-1′,4′,5′,7′-tetrahydrospiro[cyclopropane-1,6′-indazole]-3′-carboxamide] | 0.5
12 | CN(C)CC(c1ccccc1)n1cc(NC(=O)c2n[nH]c3c2CC(C)(C)C3)cn1 (single isomer, unassigned) [Example 96b, N-(1-(2-(dimethylamino)-1-phenylethyl)-1H-pyrazol-4-yl)-5,5-dimethyl-1,4,5,6-tetrahydrocyclopenta[c]pyrazole-3-carboxamide] | 2
13 | CC1(C)CCc2c(C(=O)Nc3cnn(C(c4cccc(Cl)c4)C4CCOCC4)c3)n[nH]c2C1 (single isomer, unassigned) [Example 115b, N-(1-((3-chlorophenyl)(tetrahydro-2H-pyran-4-yl)methyl)-1H-pyrazol-4-yl)-6,6-dimethyl-4,5,6,7-tetrahydro-1H-indazole-3-carboxamide] | 7
14 | CC1(C)CCc2c(C(=O)Nc3cnn(C(c4cccnc4)C4CS(=O)(=O)C4)c3)n[nH]c2C1 (single isomer, unassigned) [Example 117b] | 6
15 | CC1CC(C(c2ccccc2)n2cc(NC(=O)c3n[nH]c4c3CCC(C)(C)C4)cn2)CCS1(=O)=O (single isomer, unassigned) [Example 139c, 6,6-dimethyl-N-(1-((2-methyl-1,1-dioxidotetrahydro-2H-thiopyran-4-yl)(phenyl)methyl)-1H-pyrazol-4-yl)-4,5,6,7-tetrahydro-1H-indazole-3-carboxamide] | 12
16 | CN1CCC2(CCc3c(C(=O)Nc4cnn(Cc5ccccc5)c4)n[nH]c3C2)C1=O (stereo not shown) [Example 123b, N-(1-benzyl-1H-pyrazol-4-yl)-1′-methyl-2′-oxo-1,4,5,7-tetrahydrospiro[indazole-6,3′-pyrrolidine]-3-carboxamide] | 4000
17 | CC1(C)CCc2c(C(=O)Nc3cnn(C(c4ccccc4)C4CN(S(C)(=O)=O)C4)c3)n[nH]c2C1 (single isomer, unassigned) [Example 45a, 6,6-dimethyl-N-(1-((1-(methylsulfonyl)azetidin-3-yl)(phenyl)methyl)-1H-pyrazol-4-yl)-4,5,6,7-tetrahydro-1H-indazole-3-carboxamide] | 370
18 | CC1(C#N)CCc2c(C(=O)Nc3cnn(Cc4ccccc4)c3)n[nH]c2C1 (single isomer, unassigned) [Example 102a, N-(1-benzyl-1H-pyrazol-4-yl)-6-cyano-6-methyl-4,5,6,7-tetrahydro-1H-indazole-3-carboxamide] | 300
19 | Cc1nnc(C(C)n2cc(NC(=O)c3n[nH]c4c3CCC(C)(C)C4)cn2)o1 (single isomer, unassigned) [Example 101a, 6,6-dimethyl-N-(1-(1-(5-methyl-1,3,4-oxadiazol-2-yl)ethyl)-1H-pyrazol-4-yl)-4,5,6,7-tetrahydro-1H-indazole-3-carboxamide] | 41
20 | CC1(C)Cc2[nH]nc(C(=O)Nc3cnn(C(CS(C)(=O)=O)c4cccnc4)c3)c2C1 (single isomer, unassigned) [Example 97a, 5,5-dimethyl-N-(1-(2-(methylsulfonyl)-1-(pyridin-3-yl)ethyl)-1H-pyrazol-4-yl)-1,4,5,6-tetrahydrocyclopenta[c]pyrazole-3-carboxamide] | 2
21 | CNCCC(c1ccccc1)n1cc(NC(=O)c2n[nH]c3c2CCC(C)(C)C3)cn1 (single isomer, unassigned) [Example 39a, 6,6-dimethyl-N-(1-(3-(methylamino)-1-phenylpropyl)-1H-pyrazol-4-yl)-4,5,6,7-tetrahydro-1H-indazole-3-carboxamide] | 0.7
22 | N#Cc1cccc(Cn2cc(NC(=O)c3n[nH]c4c3CC(c3cn[nH]c3)CC4)cn2)c1 (single isomer, unassigned) [Example 2a, N-(1-(3-cyanobenzyl)-1H-pyrazol-4-yl)-5-(1H-pyrazol-4-yl)-4,5,6,7-tetrahydro-1H-indazole-3-carboxamide] | 68
